From patent US12551498B2, “Treatment of P53-deficient cancers” (Health Research, Inc., priority 2019, dated 2026)
Values joined by “and” are separate entries in the source; they are usually repeats but may differ in a detail not shown here. Identical values can stand only once. “Also recorded” adds a separate entry of the source. Like-named read-outs stand apart in the source and are kept apart here.

How the values were obtained:
[1] = test system: p53-deficient cancer cell lines; assay: Cytotoxicity assay, p53-deficient (p53mt) cancer cell lines; assay type: cell-based, human
Experimental: (§1) Cells were plated at a density of 5,000 cells/well in a 96 well-plate and then treated with the appropriate drugs at varying concentrations for 24 hours. Media was replenished with media with or without PARP inhibitors and cell were incubated for 96 hours. Cells were stained with 1% Methylene Blue for 30 minutes, rinsed with water, dried and then solubilized in 5% SDS in PBS, and read at 650 nm. IC50 values were generated using GraphPad Prism8 (Version 8.4.2).
(§2) Cytotoxicity Assay: Cells were plated at a density of 5,000 cells/well in a 96 well-plate and then treated with the appropriate drugs at varying concentrations for 24 hours. Media was replenished with media with or without PARP inhibitors and cell were incubated for 96 hours. Cells were stained with 1% Methylene Blue for 30 minutes, rinsed with water, dried and then solubilized in 5% SDS in PBS, and read at 650 nm. IC50 values were generated using GraphPad Prism8 (Version 8.4.2).

[2] = test system: PARylation activity in MCF10A and MDA-MB-231 cells; assay: Inhibition of PARylation activity in cell culture (immunoblot); assay type: cell-based, human; details: 24 hrs
Experimental: (§3) Immunoblotting: Tumor cells were seeded in a 6-well plate at 300,000 cells/well and treated with various reagents. Whole-cell lysates were prepared using NP40 lysis buffer containing PMSF, Na-Orthovanadate, and protease inhibitor cocktail. Snap-frozen tumor tissues were ground and suspended in NP40 lysis buffer. Protein concentrations in lysates were quantitated and 15 μg of protein/lane were resolved on a 10% SDS-PAGE gel. Proteins were transferred onto a nitrocellulose membrane in 10% Methanol-SDS buffer and probed with appropriate antibodies. ECL reagent was used to visualize immune-complexes on radiographic films.

[3] = test system: p53-p21 signaling in MCF10A cells; assay: p53-p21 signaling immunoblot, MCF10A; assay type: cell-based, human; details: for p53-p21 signaling response: MCF10A (p53wt)
Experimental: as §3

[4] = test system: MDA-MB-231 cells; assay: Cell cycle analysis by flow cytometry, p53mt cancer cells; assay type: cell-based, human
Experimental: (§4) All samples were analyzed on an LSRFortessa Cytometer (BD Biosciences) running FACSDiva (Version 6.1.3), and the data were processed using FCS Express 7 (Version 7.04.0016). For the EdUrd pulse experiments, 300,000 cells per well were seeded in a 6-well plate, and the following day media was replaced with base media containing 5% dialyzed FBS. Cells were then incubated with 10 μM EdUrd for two hours, while untreated cells served as the negative control. Following the two-hour pulse, cells were washed twice with DPBS and the media was replenished. Collection of cells began at t=0 hr up to t=72 hr post EdUrd-pulse. Cells were collected using standard trypsinization, washed in 1% BSA in DPBS, and fixed in 4% paraformaldehyde for 15 minutes. Cells underwent two more washes in 1% BSA/DPBS before being permeabilized in 1× saponin buffer. […] Samples were sorted using a BD LSRFortessa cytometer running FACSDiva (Version 6.1.3), and the data were analyzed using ModFit Lt software (Version 5.0.9). […]
(§5) Flow cytometry: All samples were analyzed on an LSRFortessa Cytometer (BD Biosciences) running FACSDiva (Version 6.1.3), and the data were processed using FCS Express 7 (Version 7.04.0016). […] Samples were sorted using a BD LSRFortessa cytometer running FACSDiva (Version 6.1.3), and the data were analyzed using ModFit Lt software (Version 5.0.9). […]

[5] = test system: MDA-MB-231 cells; assay: Cytotoxicity assay (methylene blue), MDA-MB-231; assay type: cell-based, human; details: single agent, read-out: IC50, cytotoxicity, drug alone
Experimental: as §1, §2

[6] = Cytotoxicity assay (methylene blue), MCF10A; assay type: cell-based, human; details: human, MCF10A cells (p53wt), single agent, read-out: IC50, cytotoxicity, drug alone
Experimental: as §1, §2

[7] = test system: MCF10A cells; assay: Cytotoxicity assay (methylene blue), MCF10A; assay type: cell-based, human; details: MCF10A (p53wt), single agent; read-out: IC50, cytotoxicity, drug alone
Experimental: as §1, §2

[8] = test system: p53-p21 signaling in MDA-MB-231 cells; assay: p53-p21 signaling immunoblot, MDA-MB-231; assay type: cell-based, human; details: MDA-MB-231 (p53mt)
Experimental: as §3

[9] = test system: MCF10A cells; assay: Cell cycle analysis by flow cytometry, MCF10A; assay type: cell-based, human; details: MCF10A (p53wt)
Experimental: as §4, §5

[10] = test system: MCF10A cells; assay: EdU-removal assay, MCF10A; assay type: cell-based, human; details: 0.5 μM Olaparib after 2 hr EdU pulse
Experimental: as §4
(§6) Cells were grown on glass coverslips (22×22 mm) and treated with inhibitors for various times, then fixed with 4% PFA and permeabilized with 0.05% Triton X-100. […] Fluorescence images were taken with a Plan Apochromat 60×/1.40 NA oil objective at ambient temperature using Nikon TE2000-E inverted microscope equipped with a charge-coupled device camera (CoolSNAP HQ; Photometrics). […]

[11] = test system: MDA-MB-231 cells; assay: EdU-removal assay / genomic EdU, MDA-MB-231; assay type: cell-based, human
Experimental: as §4, §6

[12] = test system: MDA-MB-231 tumors; assay type: in vivo; details: 5 days-on, 2 days-off
Experimental: (§7) Tumor growth was monitored by measuring tumor diameters with electronic calipers twice/week. Volumes were calculated using the formula (length)×(width)2/2. Mouse weights were measured twice/week. […] Drugs were given at 50 mg/kg by oral gavage on schedule 5-days-on and 2-days-off. At the endpoint, mice were euthanized and subjected to necropsy and organ collection. Tumor tissues were collected for RNA and protein analyses by snap-freezing in liquid nitrogen. Blood was collected for CBC by cardiac puncture.
Statistical significance of data comparisons were determined using the Student's unpaired t-test with a two-tailed distribution. Statistical significance was achieved when P<0.05. […]

[13] = test system: MIAPACA-2 tumors; assay: MIAPACA-2 subcutaneous pancreatic cancer xenograft in mice; assay type: in vivo; details: 50 mg/kg each drug, oral gavage, 5 days-on, 2 days-off
Experimental: as §7, with “calipers” for “calipers twice/week. Volumes were calculated using the formula (length)×(width)2/2. Mouse weights were measured”
Statistical significance was achieved when P<0.05.

[14] = test system: BRCA1-deficient cell lines; details: cited from earlier work
[15] = test system: γH2AX in MCF10A cells; assay: DNA damage marker γH2AX, p53wt MCF10A; assay type: cell-based, human
Experimental: (§8) Cells were grown on glass coverslips (22×22 mm) and treated with inhibitors for various times, then fixed with 4% PFA and permeabilized with 0.05% Triton X-100. For γH2AX staining samples were blocked with 3% milk in PBS for 30 min at room temperature (RT), and then incubated for 1 h with antibodies to γH2AX (1:400) in 1% milk/PBS followed by incubation with Texas red-conjugated secondary antibody (1:500) for 30 min at RT. For evaluation of genomic EdU, cells were grown on glass coverslips, and then pulse-labeled with EdUrd as described for flow cytometry. Cells were fixed at various times with 4% PFA and permeabilized with 0.05% Triton X-100, and then EdU was labeled with Cy3 azide using ‘click-it’ reaction as described above. DNA was labeled with Hoechst 33342 before mounting on glass slides. Fluorescence images were taken with a Plan Apochromat 60×/1.40 NA oil objective at ambient temperature using Nikon TE2000-E inverted microscope equipped with a charge-coupled device camera (CoolSNAP HQ; Photometrics). The images were acquired using MetaVue imaging software (v7.7.3, Molecular Devices). Experiments were repeated twice with representative images shown.
as §3

[16] = test system: γH2AX in p53mt MDA-MB-231 cells; assay: DNA damage marker γH2AX, p53mt cancer cells; assay type: cell-based, human; details: p53mt / p53-deficient cells
Experimental: as §8
Immunoblotting: Tumor cells were seeded in a 6-well plate at 300,000 cells/well and treated with various reagents. […] Protein concentrations in lysates were quantitated and 15 μg of protein/lane were resolved on a 10% SDS-PAGE gel. […]

[17] = biological target: thymidylate synthase (TS) (Homo sapiens, UniProt P04818); details: cited from earlier work
[18] = Homo sapiens, MDA-MB-231, MDA-MB-231 (p53mt)

thymidylate synthase (TS), sequence (P04818 whole entry, species assumed): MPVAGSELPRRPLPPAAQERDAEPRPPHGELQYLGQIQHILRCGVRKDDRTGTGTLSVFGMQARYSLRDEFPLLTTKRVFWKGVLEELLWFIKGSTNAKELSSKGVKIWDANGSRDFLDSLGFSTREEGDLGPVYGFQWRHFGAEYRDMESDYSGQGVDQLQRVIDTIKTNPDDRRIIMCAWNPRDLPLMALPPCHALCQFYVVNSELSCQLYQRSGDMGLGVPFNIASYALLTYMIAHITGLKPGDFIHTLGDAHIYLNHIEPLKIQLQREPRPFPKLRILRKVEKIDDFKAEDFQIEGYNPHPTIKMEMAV

## Cn1ncnc1[C@H]1c2n[nH]c(=O)c3cc(F)cc(c23)N[C@@H]1c1ccc(F)cc1 [talazoparib]
[1]; Homo sapiens; read-out: IC50 for cancer cells, PARPi alone
  IC50: 2 to 4 µM
[2]
  Concentration inhibiting PARylation activity in cells: 50 nM
[3]
  p53-p21 signaling response: p21 induction was observed only in p53wt cells
[4]
  Cell cycle effect: increased G2 fraction at the expense of S phase

## O=C(c1cc(Cc2n[nH]c(=O)c3ccccc23)ccc1F)N1CCN(C(=O)C2CC2)CC1 [olaparib]
[5]; [18]
  IC50: 17.6 µM
[5]; MDA-MB-231 (p53mt)
  IC50: 17.4 µM
[6]
  IC50 at 24 h: 14.5 µM
[7]
  IC50: 15.3 µM
[1]; Homo sapiens, read-out: IC50 for cancer cells, PARPi alone
  IC50: 16 to 24 µM
[2]
  Concentration inhibiting PARylation activity in cells: 100 to 500 nM and 50 to 100 nM
[3]; MCF10A
  Concentration activating p53-p21 signaling: 200 nM
[3]
  p53-p21 signaling response: induced p53-p21 signaling
[3]; MCF10A, 24 hrs
  Concentration inducing p53-p21 signaling: 0.2 to 0.5 µM
[8]
  p53-p21 signaling response: p21 was not regulated; also recorded: no response was observed
[9]
  Cell cycle effect: increased G1-population
[4]
  Cell cycle effect: increased G2 fraction at the expense of S phase
[10]
  Effect on removal of EdU: significantly delayed removal of EdU
[11]; MDA-MB-231, 0.5 μM Olaparib after 2 hr EdU pulse
  Effect on removal of EdU: had no effect
[12]; 50 mg/kg each drug, oral gavage
  Median survival (time-to-arrive at 300 mm3 tumor size): 21 days
[12]; 50 mg/kg oral gavage
  Tumor growth: did not affect tumor growth
[13]
  Median survival (time-to-arrive at 500 mm3 tumor size): 21 days
[14]
  IC50: < 1 µM

## O=c1[nH]c(=O)n([C@H]2C[C@H](O)[C@@H](CO)O2)cc1F [FdUrd, 5-fluoro-2′-deoxyuridine]
[5]; [18]
  IC50: 5.5 µM
[6]
  IC50 at 24 h: 1.6 µM
[3]
  p53-p21 signaling response: induced p53-p21 signaling
[15]
  γH2AX (DNA damage) response: induced transiently at 6 hrs of FdU exposure and declined by 48 hrs
[16]
  γH2AX (DNA damage) response: induced by 24 hrs and remained at high levels at 48 hrs

## COc1ccc(C2=N[C@@H](c3ccc(Cl)cc3)[C@@H](c3ccc(Cl)cc3)N2C(=O)N2CCNC(=O)C2)c(OC(C)C)c1 [Nutlin-3A]
[15]
  γH2AX (DNA damage) response: did not induce DNA damage γH2AX marker

## C#Cc1cn([C@H]2C[C@H](O)[C@@H](CO)O2)c(=O)[nH]c1=O [EdUrd, 5-ethynyl-2′-deoxy-uridine]
[15]
  γH2AX (DNA damage) response: transient increase of γH2AX levels
[16]
  γH2AX (DNA damage) response: continued accumulation of DNA damage signal
[11]; 24 hrs after 2 hr EdUrd pulse, flow cytometry
  Increase of EdU+ fraction after EdUrd-pulse: ~25%

## O=c1[nH]c(=O)n([C@H]2C[C@H](O)[C@@H](CO)O2)cc1C(F)(F)F [TFT, 5-trifluoro-2′-deoxythymidine]
[17]
  Inhibition of TS: 0.38 nM

## O=c1[nH]cc(F)c(=O)[nH]1 [5FU, 5-fluoro-uracil]
[1]; olaparib 0.5 μM; tested cell lines
  Cooperation of 5FU with olaparib in cytotoxicity: did not cooperate with olaparib; also recorded: does not enhance cytotoxicity
